The source made the active and inactive calls. The calls are words filed in the database; no cut-off is given here.
How the values were obtained:
HL-60 [1] = experiment: Upregulation of PUMA mRNA expression in human HL-60 cells overexpressing p53-V272M mutant at 2 uM pretreated for 1 hr followed by culturing in fresh medium for 8 hrs by RT-qPCR analysis; type: functional, cell-based
U-937 [2] = experiment: Induction of cell cycle arrest in human U-937 cells overexpressing p53-V272M mutant assessed as upregulation of p21 encoding CDKN1A gene expression by RT-qPCR analysis; type: functional, cell-based
U-937 [3] = experiment: Antitumor activity against human U-937 cells harboring p53-V272M mutant xenografted in NSG mouse assessed as delay in tumor progression at 10 mg/kg, iv administered for 9 days by bioluminescence imaging based luciferase analysis; type: functional, organism-based; conditions: time 9.0 day
[4] = Drug accumulation in ICR mouse liver at 10 mg/kg, iv measured upto 24 hrs by ICP-MS analysis; type: ADME, organism-based; conditions: in vivo
U-937 [5] = experiment: Antitumor activity against GFP-tagged human U-937 cells harboring p53 V272M mutant xenografted in M-NSG mouse assessed as decrease in leukemia cell population in bone marrow at 25 mg/kg, ip administered for 9 days starting from 7 days post inoculation and measured on day 2,6,and 9 by FACS analysis; type: functional, organism-based; conditions: time 9.0 day
[6] = system: Cellular tumor antigen p53 (Homo sapiens), P04637 [V272M]; experiment: Restoration of p53-V272M mutant transcriptional activity on PUMA promoter in human NCI-H1299 cells at 10 uM pretreated with -auranofin for 10 mins followed by compound addition for 10 mins and further incubation in fresh medium for 24 hrs by firefly/renilla based luciferase reporter assay; type: cell-based
U-937 [7] = experiment: Antitumor activity against luciferase transduced human U-937 cells harboring p53 V272M mutant xenografted in M-NSG mouse assessed as median survival at 10 mg/kg, iv administered daily for 11 days (reference value: 11 day); type: functional
NB-4 [8] = experiment: Induction of apoptosis in human NB4 cells assessed as viable cells at 3 uM preincubated for 1 hrs followed by replacement with fresh culture medium and measured after 24 hrs by Annexin V-FITC/7AAD staining based flow cytometry assay (reference value: 94%); type: functional; conditions: read-out: Activity
U-937 [9] = experiment: Antitumor activity against GFP-tagged human U-937 cells harboring p53 V272M mutant xenografted in M-NSG mouse assessed as decrease in leukemia cell population in spleen at 25 mg/kg, ip administered for 9 days starting from 7 days post inoculation and measured on day 2,6 and 9 by FACS analysis; type: functional, organism-based; conditions: time 9.0 day
[10] = system: Cellular tumor antigen p53 (Homo sapiens), P04637 [V272M]; experiment: Rescue of p53-V272M mutant transcriptional activity on PUMA promoter in human NCI-H1299 cells at 0.3 to 10 uM pretreated for 10 mins to1 hr followed by replacement with fresh culture media and measured after 24 hrs by firefly/renilla based luciferase reporter assay; type: cell-based; conditions: filed as activator, dose 0.3-10 µM, time 10-60 min
U-937 [11] = experiment: Antitumor activity against human U-937 cells harboring p53 V272M mutant xenografted in M-NSG mouse assessed as median survival at 25 mg/kg, ip administered daily for 11 days (reference value: 11 day); type: functional
U-937 [12] = experiment: Inhibition of colony formation in human U-937 cells harboring p53-V272M mutant at 0.5 to 8 uM pretreated for 1 hr followed by culturing in fresh medium and measured on day 14 by crystal violet staining based assay; type: functional, cell-based; conditions: dose 0.5-8 µM
U-937 [13] = experiment: Cytotoxicity against p53 null human U-937 cells harboring empty vector incubated for 48 hrs by CCK-8 assay; type: functional, cell-based; conditions: U-937, 48 h
[14] = Drug uptake in HFL1 cells at 10 uM measured after 10 mins by ICP-MS analysis; type: ADME, cell-based; conditions: human, hfl1, 10 min
NB-4 [15] = experiment: Induction of apoptosis in human NB4 cells assessed as necrotic cells at 9 uM preincubated for 1 hrs followed by replacement with fresh culture medium and measured after 24 hrs by Annexin V-FITC/7AAD staining based flow cytometry assay (reference value: 0.16%); type: functional
[16] = target: PML-RARalpha (Homo sapiens) (UniProt P10276+P29590); experiment: Induction of PML/RARalpha degradation in HEK293T cells at 3 uM incubated for 1 hrs followed by replacement with fresh culture medium and measured after 16 hrs by immunofluorescence analysis; type: cell-based
PML-RARalpha (Homo sapiens), sequence (P10276 whole entry, looked up): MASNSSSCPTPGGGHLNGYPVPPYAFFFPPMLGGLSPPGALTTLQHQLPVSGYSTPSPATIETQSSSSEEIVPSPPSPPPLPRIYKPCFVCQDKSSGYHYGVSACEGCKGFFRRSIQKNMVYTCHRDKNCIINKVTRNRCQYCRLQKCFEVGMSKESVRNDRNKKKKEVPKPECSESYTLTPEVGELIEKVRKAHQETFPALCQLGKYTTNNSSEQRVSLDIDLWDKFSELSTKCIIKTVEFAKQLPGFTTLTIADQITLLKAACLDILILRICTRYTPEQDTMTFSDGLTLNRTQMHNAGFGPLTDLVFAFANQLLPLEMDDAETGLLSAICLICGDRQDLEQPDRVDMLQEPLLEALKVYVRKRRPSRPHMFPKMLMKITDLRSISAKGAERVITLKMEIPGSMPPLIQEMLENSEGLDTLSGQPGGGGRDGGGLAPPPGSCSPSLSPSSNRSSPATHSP
PML-RARalpha (Homo sapiens), sequence (P29590 whole entry, looked up): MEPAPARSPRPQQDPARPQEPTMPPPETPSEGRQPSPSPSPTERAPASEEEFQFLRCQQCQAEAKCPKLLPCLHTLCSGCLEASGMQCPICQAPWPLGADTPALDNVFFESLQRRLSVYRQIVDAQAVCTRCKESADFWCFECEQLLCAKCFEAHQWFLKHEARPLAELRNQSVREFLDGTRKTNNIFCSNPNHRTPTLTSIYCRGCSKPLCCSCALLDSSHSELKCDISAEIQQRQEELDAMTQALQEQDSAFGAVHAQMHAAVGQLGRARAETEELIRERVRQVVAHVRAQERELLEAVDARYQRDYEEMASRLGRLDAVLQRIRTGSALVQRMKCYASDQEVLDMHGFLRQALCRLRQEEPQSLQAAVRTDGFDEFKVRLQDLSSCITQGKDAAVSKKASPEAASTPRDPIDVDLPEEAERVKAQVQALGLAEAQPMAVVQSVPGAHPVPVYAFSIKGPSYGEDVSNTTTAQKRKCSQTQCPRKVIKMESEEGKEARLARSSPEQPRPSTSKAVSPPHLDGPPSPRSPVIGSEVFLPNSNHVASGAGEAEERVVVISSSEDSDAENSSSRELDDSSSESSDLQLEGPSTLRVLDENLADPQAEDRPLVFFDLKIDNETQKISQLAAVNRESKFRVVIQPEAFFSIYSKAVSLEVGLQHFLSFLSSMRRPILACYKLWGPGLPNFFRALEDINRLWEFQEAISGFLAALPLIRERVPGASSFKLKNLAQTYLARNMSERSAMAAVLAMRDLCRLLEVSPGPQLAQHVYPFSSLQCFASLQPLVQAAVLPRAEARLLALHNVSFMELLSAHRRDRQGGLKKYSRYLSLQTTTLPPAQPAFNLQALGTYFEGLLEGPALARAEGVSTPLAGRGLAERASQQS

NCI-H1299 [17] = experiment: Inhibition of colony formation in human NCI-H1299 cells harboring p53-V272M mutant at 2 to 32 uM pretreated for 1 hr followed by culturing in fresh medium and measured on day 7 by crystal violet staining based assay; type: functional, cell-based; conditions: dose 2-32 µM
U-937 [18] = experiment: Upregulation of MDM2 protein expression in human U-937 cells overexpressing p53-V272M mutant at 0.1 to 0.5 uM pretreated for 1 hr followed by culturing in fresh medium for 16 hrs by Western blot analysis; type: functional, cell-based; conditions: dose 0.1-0.5 µM
U-937 [19] = experiment: Induction of cell cycle arrest in human U-937 cells harboring p53-V272M mutant at 0.5 to 8 uM pretreated for 1 hr followed by culturing in fresh medium for 24 hrs by RNase/PI staining based flow cytometry analysis; type: functional; conditions: dose 0.5-8 µM
[20] = Plasma stability in mouse assessed as half life at […] measured upto 120 mins by LC-MS analysis; type: ADME, cell-free
[21] = Plasma stability in human assessed as half life at […] measured upto 120 mins by LC-MS analysis; type: ADME, cell-free
NB-4 [22] = experiment: Induction of apoptosis in human NB4 cells assessed as early apoptotic cells at 9 uM preincubated for 1 hrs followed by replacement with fresh culture medium and measured after 24 hrs by Annexin V-FITC/7AAD staining based flow cytometry assay (reference value: 2.15%); type: functional
[23] = Drug uptake in human HepG2 cells assessed as arsenic localization in cytoplasm at 10 uM incubated for 1 hr by ICP-MS analysis; type: ADME, cell-based; conditions: hepg2, 1 h
NB-4 [24] = experiment: Induction of granulocytic differentiation in human NB4 cells assessed as increase in CD11b expression at 3 uM incubated for 1 hrs followed by replacement with fresh culture medium for 48 hrs by flow cytometry analysis (reference value: 1.44%); type: functional
[25] = Drug accumulation in ICR mouse lungs at 10 mg/kg, iv measured upto 24 hrs by ICP-MS analysis; type: ADME, organism-based, Lung; conditions: in vivo
[26] = Drug uptake in human U-937 cells harboring p53-V272M mutant at 10 uM measured after 10 mins by ICP-MS analysis; type: ADME, cell-based; conditions: u-937, 10 min
HL-60 [27] = experiment: Upregulation of CDKN1A mRNA expression in human HL-60 cells overexpressing p53-V272M mutant at 2 uM pretreated for 1 hr followed by culturing in fresh medium for 8 hrs by RT-qPCR analysis; type: functional, cell-based
[28] = Drug accumulation in ICR mouse kidney at 10 mg/kg, iv measured upto 24 hrs by ICP-MS analysis; type: ADME, organism-based; conditions: in vivo
[29] = system: Cellular tumor antigen p53 (Homo sapiens), P04637 [V272M]; experiment: Restoration of p53-V272M mutant transcriptional activity on PUMA promoter in human NCI-H1299 cells harboring siRNA-mediated CKAP4 knockdown incubated for 24 hrs by firefly/renilla based luciferase reporter assay; type: cell-based
NB-4 [30] = experiment: Induction of granulocytic differentiation in human NB4 cells assessed as CD11b positive cells at 9 uM incubated for 1 hrs followed by replacement with fresh culture medium for 48 hrs by flow cytometry analysis relative to control; type: functional
NCI-H1299 [31] = experiment: Upregulation of PUMA mRNA expression in human NCI-H1299 cells overexpressing p53-V272M mutant at 2 uM pretreated for 1 hr followed by culturing in fresh medium for 8 hrs by RT-qPCR analysis; type: functional, cell-based

For `CC(=O)OC[C@H]1O[C@@H](S[As]2SCCS2)[C@H](OC(C)=O)[C@@H](OC(C)=O)[C@@H]1OC(C)=O`, the Activity (HL-60 [1]) was “Active”, the Activity (U-937 [2]) was “Active” and the Activity (U-937 [3]) was “Active”. The Drug uptake [4] was “Active”, the Activity (U-937 [5]) was “Active” and the Activity [6] was “inactive”. The MST (U-937 [7]) was 16 days, the viability at 3 µM (NB-4 [8]) was 91.1% and the Activity (U-937 [9]) was “Active”. The Activity [10] was “Active”, the MST (U-937 [11]) was 18 days and the inhibition (U-937 [12]) was “Active”. The IC50 (U-937 [13]) was 2100 nM, the Drug uptake [14] was “Active” and the Activity (NB-4 [15]) was 0.26%. The Activity [16] was “Active”, the inhibition (NCI-H1299 [17]) was “Active” and the Activity (U-937 [18]) was “Active”. For the same compound, the Activity (U-937 [19]) was “Active”, the half-life [20] was 13.4 min and the half-life [21] was 16.1 min. For the same compound, the Activity (NB-4 [22]) was 7.43%, the Drug uptake [23] was “Active” and the Activity (NB-4 [24]) was 32.9%. The Drug uptake [25] was “Active”, the Drug uptake [26] was “Active” and the Activity (HL-60 [27]) was “Active”. For the same compound, the Drug uptake [28] was “Active”, the Activity [29] was “inactive” and the Activity (NB-4 [30]) was 20.9%. The Activity (NCI-H1299 [31]) was “Active”.
